PMC3700763, “First human dose-escalation study with remogliflozin etabonate, a selective inhibitor of the sodium-glucose transporter 2 (SGLT2), in healthy subjects and in subjects with type 2 diabetes mellitus” (BMC Pharmacology & Toxicology, 2013)
Marks after values point to notes of the source that are not given here.

Tests used:
[1] = Plasma pharmacokinetics, healthy subjects; assay type: in vivo, human; settings: for Tmax / half-life / AUC(0-inf) / Cmax: human; for AUC(0-inf): read-out: AUC(0-∞) Geometric mean (CV%); for Cmax: read-out: Cmax Geometric mean (CV%); for AUC ratio (remogliflozin/remogliflozin etabonate) Geometric mean: molecular weight corrected
Experimental: Ten healthy subjects were evaluated in 5 study sessions, each separated by approximately 2 weeks. At each study session, subjects received either an oral dose of remogliflozin etabonate or placebo after an overnight fast. Remogliflozin etabonate doses were 20 mg, 50 mg, 150 mg, 500 mg and 1000 mg. Over the course of participation in the study, each subject received 4 of the 5 active remogliflozin etabonate doses and 1 dose of placebo (4:1 active to placebo ratio per treatment period). The available safety and PK results from each dosing period were evaluated before proceeding to the next dose level. On each dosing day, a series of 2.0 mL blood samples were collected at pre-dose and 10, 20, 30 and 45 min, and 1, 1.25, 1.5, 2, 2.5, 3, 4, 6, 8, 12, 16, and 24 h post-dose for the determination of remogliflozin etabonate, remogliflozin and GSK279782 in plasma by using high-performance liquid chromatography with tandem mass spectrometry (MS/MS) as described. Non-compartmental PK analysis of plasma concentration–time data was performed using WinNonlin Version 4.1 (Pharsight Corporation, Mountainview, CA, USA). The Cmax and Tmax were obtained directly from the data. Areas under the plasma concentration–time curves from time zero to the last quantifiable time point (AUC[0–last]) and extrapolated to infinity (AUC[0–∞]) were calculated using the log-linear trapezoidal method. The terminal plasma elimination rate-constant (λz) was estimated from log-linear regression analysis of the terminal phase of the plasma concentration–time curve, and the T½ was calculated as T½ = ln2/λz. Ratios of AUC(0–∞) remogliflozin to AUC(0–last) remogliflozin etabonate were calculated including molecular weight corrections. Safety and pharmacodynamic data were summarized using descriptive statistics. This was a small exploratory study and no formal hypothesis-testing was conducted. Dose proportionality with respect to Cmax, and AUC was assessed using the power model y = α dose^β, where y = Cmax or AUC, and α denotes a random subject effect. The exponent β in the power model will be estimated by regressing the loge-transformed PK parameters on loge dose, i.e. ln(PK parameter) = ln(α) + β * ln(dose). Dose proportionality implied that β = 1 and was assessed by estimating β and its corresponding 90% confidence interval. The power model was fitted by restricted maximum likelihood using SAS Proc Mixed.

[2] = Plasma pharmacokinetics, T2DM subjects; assay type: in vivo, human; settings: for AUC(0-inf) / Cmax / Tmax / half-life: human, plasma analyte; for AUC(0-inf): read-out: AUC(0–∞) Geometric mean (CV%); for Cmax: read-out: Cmax Geometric mean (CV%); for Tmax: read-out: Tmax Median; for half-life: read-out: T½ Geometric mean (CV%) (converted)
Experimental: Six subjects with T2DM received two doses of remogliflozin etabonate and a placebo dose, in a randomized, dose escalating, crossover design, along with an oral glucose load on three study sessions separated by 7–14 days. Full PK and safety profiles were measured on Day 1 of each dosing period. The doses selected for this portion of the study, 50 mg and 500 mg, were based on data obtained in Part A. In each dosing period, subjects were assigned to active vs placebo in a 2:1 ratio. On each dosing day, a series of 2.0 mL blood samples were collected at pre-dose and 10, 20, 30 and 45 min, and 1, 1.25, 1.5, 2, 2.5, 3, 4, 6, 8, 12, 16, and 24 h post-dose for the determination of remogliflozin etabonate, remogliflozin and GSK279782 in plasma by using high-performance liquid chromatography with tandem mass spectrometry (MS/MS) as described. Non-compartmental PK analysis of plasma concentration–time data was performed using WinNonlin Version 4.1 (Pharsight Corporation, Mountainview, CA, USA). The Cmax and Tmax were obtained directly from the data. Areas under the plasma concentration–time curves from time zero to the last quantifiable time point (AUC[0–last]) and extrapolated to infinity (AUC[0–∞]) were calculated using the log-linear trapezoidal method. The terminal plasma elimination rate-constant (λz) was estimated from log-linear regression analysis of the terminal phase of the plasma concentration–time curve, and the T½ was calculated as T½ = ln2/λz. Ratios of AUC(0–∞) remogliflozin to AUC(0–last) remogliflozin etabonate were calculated including molecular weight corrections.

SGLT-2 = tested on: SGLT-2; set-up: method as in PMID 22851617; settings: relative to remogliflozin; cited from earlier work
SGLT2 over SGLT1 = tested on: SGLT2 over SGLT1; set-up: method as in PMID 12139397; settings: cited from earlier work
[3] = plasma, po, 20 mg, plasma analyte, healthy subjects, remogliflozin etabonate 20 mg oral dose, read-out: T½ Geometric mean (CV%) (converted)
[4] = plasma, po, 50 mg, plasma analyte, healthy subjects, remogliflozin etabonate 50 mg oral dose, read-out: T½ Geometric mean (CV%) (converted)
[5] = plasma, po, 150 mg, plasma analyte, healthy subjects, remogliflozin etabonate 150 mg oral dose, read-out: T½ Geometric mean (CV%) (converted)
[6] = plasma, po, 500 mg, plasma analyte, healthy subjects, remogliflozin etabonate 500 mg oral dose, read-out: T½ Geometric mean (CV%) (converted)
[7] = plasma, po, 1000 mg, plasma analyte, healthy subjects, remogliflozin etabonate 1000 mg oral dose, read-out: T½ Geometric mean (CV%) (converted)
[8] = plasma analyte, healthy subjects, remogliflozin etabonate 20 mg oral dose
[9] = plasma analyte, healthy subjects, remogliflozin etabonate 20 mg oral dose, read-out: Tmax Median
[10] = plasma analyte, healthy subjects, remogliflozin etabonate 50 mg oral dose
[11] = plasma analyte, healthy subjects, remogliflozin etabonate 50 mg oral dose, read-out: Tmax Median
[12] = plasma analyte, healthy subjects, remogliflozin etabonate 150 mg oral dose
[13] = plasma analyte, healthy subjects, remogliflozin etabonate 150 mg oral dose, read-out: Tmax Median
[14] = plasma analyte, healthy subjects, remogliflozin etabonate 500 mg oral dose
[15] = plasma analyte, healthy subjects, remogliflozin etabonate 500 mg oral dose, read-out: Tmax Median
[16] = plasma analyte, healthy subjects, remogliflozin etabonate 1000 mg oral dose
[17] = plasma analyte, healthy subjects, remogliflozin etabonate 1000 mg oral dose, read-out: Tmax Median
[18] = remogliflozin etabonate 50 mg oral dose
[19] = remogliflozin etabonate 500 mg oral dose (prodrug n = 2)
[20] = remogliflozin etabonate 500 mg oral dose

| half-life [1, 3] | half-life [1, 4] | half-life [1, 5] | half-life [1, 6] | half-life [1, 7] | AUC(0-inf) [1, 8] | Cmax [1, 8] | Tmax [1, 9] | AUC(0-inf) [1, 10] | Cmax [1, 10] | Tmax [1, 11] | AUC(0-inf) [1, 12] | Cmax [1, 12] | Tmax [1, 13] | AUC(0-inf) [1, 14] | Cmax [1, 14] | Tmax [1, 15] | AUC(0-inf) [1, 16] | Cmax [1, 16] | Tmax [1, 17] | SMILES | also measured |
| --- | --- | --- | --- | --- | --- | --- | --- | --- | --- | --- | --- | --- | --- | --- | --- | --- | --- | --- | --- | --- | --- |
| 1.54 h | 2.19 h | 2.28 h | 3.07 h | 3.5 h | 51.8 ng·h/mL | 17.5 ng/mL | 1.26 h | 145 ng·h/mL | 50.2 ng/mL | 1.38 h | 447 ng·h/mL | 155 ng/mL | 1 h | 1520 ng·h/mL | 498 ng/mL | 1.5 h | 4000 ng·h/mL | 1290 ng/mL | 1.25 h | Cc1[nH]nc(O[C@@H]2O[C@H](CO)[C@@H](O)[C@H](O)[C@H]2O)c1Cc1ccc(OC(C)C)cc1 [GSK279782] | Tmax ([1]; plasma, oral, healthy subjects, 20-1000 mg, read-out: median Tmax estimates, range across doses): 1 to 1.5 h; half-life ([1]; plasma, oral, healthy subjects, 20-1000 mg, read-out: median T½ estimates, range across doses): 1.54 to 3.5 h; AUC(0-inf) [2, 18]: 130 ng·h/mL; Cmax [2, 18]: 34.6 ng/mL; Tmax [2, 18]: 1.74 h; half-life [2, 18]: 2.05 h; AUC(0-inf) [2, 19]: 1290 ng·h/mL; half-life [2, 19]: 3.28 h; Cmax [2, 20]: 314 ng/mL; Tmax [2, 20]: 2.75 h; Potency in inhibiting SGLT-2 in vitro (SGLT-2): as potent as remogliflozin |
| 1.38 h | 1.47 h | 1.59 h | 2.57 h | 2.86 h | 133 ng·h/mL | 61 ng/mL | 0.89 h | 324 ng·h/mL | 158 ng/mL | 1.14 h | 991 ng·h/mL | 515 ng/mL | 0.66 h | 3720 ng·h/mL | 1700 ng/mL | 1.5 h | 10300 ng·h/mL | 4820 ng/mL | 1.25 h | Cc1c(Cc2ccc(OC(C)C)cc2)c(O[C@@H]2O[C@H](CO)[C@@H](O)[C@H](O)[C@H]2O)nn1C(C)C [Remogliflozin, remogliflozin] | AUC ratio (remogliflozin/remogliflozin etabonate) Geometric mean ([1]; healthy subjects, 20 mg oral dose, n = 5): 84^d; AUC ratio (remogliflozin/remogliflozin etabonate) Geometric mean ([1]; healthy subjects, 50 mg oral dose): 81; AUC ratio (remogliflozin/remogliflozin etabonate) Geometric mean ([1]; healthy subjects, 150 mg oral dose): 102; AUC ratio (remogliflozin/remogliflozin etabonate) Geometric mean ([1]; healthy subjects, 500 mg oral dose): 105; AUC ratio (remogliflozin/remogliflozin etabonate) Geometric mean ([1]; healthy subjects, 1000 mg oral dose): 95; Time to appearance in plasma at relatively high concentrations ([1]; healthy subjects, after remogliflozin etabonate dosing): ≤ 10 min; half-life ([1]; plasma, oral, both populations, independent of dose (abstract), read-out: mean plasma T½): 2 h; half-life ([1]; plasma, oral, healthy subjects, 20-1000 mg, read-out: mean T½ estimates, range across doses): 1.38 to 2.86 h; Tmax ([1]; plasma, both populations, after oral RE (abstract), read-out: time to maximum plasma concentration (Tmax)): ~1 h; AUC(0–∞) ratio (Remogliflozin/remogliflozin etabonate) Geometric mean (CV%) ([2]; 50 mg oral dose): 59 (62); AUC(0–∞) ratio (Remogliflozin/remogliflozin etabonate) Geometric mean (CV%) ([2]; 500 mg oral dose): 54 (38); AUC(0-inf) [2, 18]: 523 ng·h/mL; Cmax [2, 18]: 195 ng/mL; Tmax [2, 18]: 1.46 h; half-life [2, 18]: 1.59 h; AUC(0-inf) [2, 19]: 5180 ng·h/mL; half-life [2, 19]: 3.93 h; Cmax [2, 20]: 1890 ng/mL; Tmax [2, 20]: 2.5 h; Selectivity for SGLT2 over SGLT1 (SGLT2 over SGLT1): high level of selectivity |
